Results from patent US20040142944A1, “Compositions for nasal application” (priority 2001, published 2004).
“Also recorded” adds a separate entry of the source.

Experiment: nasal administration of cGMP PDE inhibitors with added local anaesthetic
Type: in vivo

OCc1ccccc1 [benzyl alcohol]
local irritation of the nasal mucosa: led to local irritation of the nasal mucosa | ability to reduce or prevent the disadvantages occurring on nasal administration of cGMP PDE inhibitors (unpleasant nasal condition, eye-watering, increased nasal airway resistance, nasal blockage) (added to cGMP PDE inhibitor): unable to reduce or prevent the disadvantages; also recorded: unsuitable for overcoming the disadvantages
